Reference: PMC8298097 (eLife, 2021)

Experiments:
[1] = test system: GIPR; conditions: maximum response compared with human GIP; ref Sparre-Ulrich et al., 2016; Bailey, 2020; cited from earlier work
From the text: Species differences in class B1 receptor responsiveness are diversified and receptor specific, which is tolerable for some receptors such as GLP-1R and GCGR, but leads to concerns for others like GIPR and parathyroid hormone receptor-2 (PTH2R) ([Sparre-Ulrich et al., 2016]; [Hoare et al., 1999]). […] Such a divergence is not caused by changes in peptide potency, but r ...

[2] = test system: GCGR; conditions: cognate receptor, ref Yuliantie et al., 2020, Darbalaei et al.; cited from earlier work
[3] = biological target: T1, human GIPR Y68A, HA-Flag-3GSA-GIPR(22-466) (human) (UniProt P48546)
T1 sequence: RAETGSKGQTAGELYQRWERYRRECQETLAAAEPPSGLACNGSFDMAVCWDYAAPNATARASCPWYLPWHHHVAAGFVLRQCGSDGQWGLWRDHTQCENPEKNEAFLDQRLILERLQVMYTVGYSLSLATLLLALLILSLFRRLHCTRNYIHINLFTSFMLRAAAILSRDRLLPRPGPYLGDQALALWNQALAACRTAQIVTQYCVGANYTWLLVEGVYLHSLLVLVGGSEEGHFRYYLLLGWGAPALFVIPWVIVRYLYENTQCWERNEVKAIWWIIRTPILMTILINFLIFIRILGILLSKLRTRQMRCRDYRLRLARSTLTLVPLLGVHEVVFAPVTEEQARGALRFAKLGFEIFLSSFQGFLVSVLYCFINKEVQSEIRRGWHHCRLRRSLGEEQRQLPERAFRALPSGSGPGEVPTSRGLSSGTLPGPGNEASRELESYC

**Q.** With “Human (Pro3)GIP: full agonist with identical maximum response as human GIP (YAPGTFISDYSIAMDKIHQQDFVNWLLAQKGKKNDWKHNITQ; Gastric inhibitory polypeptide; UniProt P09681 52-93, looked up, variant E3P)” as the substance, how does the agonism [1] read?
**A.** The agonism was “full agonist with identical maximum response as human GIP”.

**Q.** For glucagon, which pIC50 [2] is on record?
**A.** The pIC50 was 7.31.

**Q.** Which GIP(1-42)-stimulated cAMP accumulation in HEK 293T cells, pEC50 [3] does the source give for “glucose-dependent insulinotropic polypeptide GIP(1-42) (from UniProt P09681 52-93)” here?
**A.** Its GIP(1-42)-stimulated cAMP accumulation in HEK 293T cells, pEC50 is 6.79.
